This note sets out measurements from DBAASP.

Test in all cases: ≥ marks a high value that may be exact or a test limit, other limits are often not marked, values filed in µg/mL are converted to µM
Test [1] concerns Staphylococcus aureus ATCC 25923.
Test [2] relates to Staphylococcus aureus 725.
Test [3] deals with Staphylococcus aureus ATCC 33591.
Test [4] relates to Staphylococcus aureus MR.
Test [5] relates to Staphylococcus aureus 936.
Test [6] has as its system Staphylococcus aureus 113.
Test [7] concerns Staphylococcus aureus 794.
Test [8] concerns Salmonella enterica subsp. enterica serovar Typhimurium ATCC 700408.
Test [9] deals with Escherichia coli D31.
The subject of test [10] is Klebsiella pneumoniae K6 ATCC 700603.
For test [11], the system named is Escherichia coli BL21AI.
For test [12], the system named is Klebsiella pneumoniae 123132.
Test [13] deals with Escherichia coli 45849.
The subject of test [14] is Salmonella enterica subsp. enterica serovar Typhi S5.
Test [15] has as its system Escherichia coli ESBL 4.
Test [16] has as its system Escherichia coli ATCC 35218.
The test system of test [17] is Escherichia coli ATCC 25922.
Test [18] has as its system Escherichia coli ATCC 43827.
In test [19] the test system is Escherichia coli ESBL.
Test [20] relates to Pseudomonas aeruginosa ATCC 27853.
Test [21] has as its system Escherichia coli ATCC 11775.
For test [22], the system named is Staphylococcus epidermidis ATCC 12228.
The subject of test [23] is Escherichia coli ATCC 11229.
Test [24] concerns Staphylococcus aureus ATCC 29213.
The subject of test [25] is Klebsiella pneumoniae ATCC 13866.
Test [26] relates to Salmonella enterica serovar Typhimurium.
The subject of test [27] is Escherichia coli NBRC 3972.
Test [28] concerns Staphylococcus epidermidis NBRC 12993.
Test [29] has as its system Micrococcus luteus NBRC 3333.
In test [30] the test system is Aspergillus oryzae NBRC 100959.
Test [31] relates to Pseudomonas putida NBRC 100650.
Test [32] concerns Candida viswanathii NBRC 10321.
Test [33] has as its system Lacticaseibacillus rhamnosus 1.0911.
The subject of test [34] is Lacticaseibacillus rhamnosus 1.0925.
Test [35] relates to Lacticaseibacillus rhamnosus 1.0385.
Test [36] concerns Staphylococcus aureus ATCC 43300.
The test system of test [37] is Escherichia coli UB1005.
In test [38] the test system is Lacticaseibacillus rhamnosus 1.0386.
Test [39] relates to Lactiplantibacillus plantarum 8014.
The test system of test [40] is Lacticaseibacillus rhamnosus 7469.
Test [41] concerns Citrobacter freundii.
Test [42] deals with Staphylococcus haemolyticus.
Test [43] relates to Klebsiella pneumoniae.
Test [44] has as its system Salmonella enterica subsp. enterica serovar Paratyphi A.

In brackets after ≈: the same amount, converted by molar mass. Several values for one entry are separate records, joined by “and”; a condition that tells them apart may be missing. Identical values can stand only once. Where only a bound is given, the exact number is not on record here.

Regarding `CC(C)C[C@H](NC(=O)[C@@H](NC(=O)[C@H](CCCCN)NC(=O)[C@H](CCCCN)NC(=O)[C@H](Cc1c[nH]c2ccccc12)NC(=O)[C@H](CC(C)C)NC(=O)[C@H](CCCN=C(N)N)NC(=O)[C@H](CC(C)C)NC(=O)[C@H](C)NC(=O)[C@H](CCCCN)NC(=O)CNC(=O)[C@H](CC(C)C)NC(=O)[C@H](CC(C)C)NC(=O)[C@H](CO)NC(=O)CNC(=O)[C@H](Cc1ccccc1)NC(=O)CN)C(C)C)C(N)=O` [GFGSLLGKALRLWKKVL], the MIC was 2.12 µM and 4.24 µM in test [1]; 4.24 µM (≈ 8 µg/mL) in test [2]; 4.24 µM (≈ 8 µg/mL) in [3]; 4.24 µM (≈ 8 µg/mL) in test [4]; 4.24 µM (≈ 8 µg/mL) in test [5]; 4.24 µM (≈ 8 µg/mL) in test [6]. In addition, in [7], the MIC worked out at 4.24 µM (≈ 8 µg/mL).
Turning to `CC[C@H](C)[C@H](NC(=O)[C@H](Cc1ccc(O)cc1)NC(=O)[C@@H](NC(=O)[C@@H]1CCCN1C(=O)[C@H](CCCN=C(N)N)NC(=O)[C@H](CC(N)=O)NC(=O)[C@H](CC(N)=O)NC(=O)CN)C(C)C)C(=O)N1CCC[C@H]1C(=O)N[C@@H](CCC(N)=O)C(=O)N1CCC[C@H]1C(=O)N[C@@H](CCCN=C(N)N)C(=O)N1CCC[C@H]1C(=O)N1CCC[C@H]1C(=O)N[C@@H](Cc1cnc[nH]1)C(=O)N1CCC[C@H]1C(=O)N[C@@H](CCCN=C(N)N)C(=O)N[C@@H](CC(C)C)C(N)=O` [GNNRPVYIPQPRPPHPRL], the MIC was determined as 0.0593 µM (≈ 0.125 µg/mL) in test [8]; 0.474 µM (≈ 1 µg/mL) in test [9]; 7.59 µM (≈ 16 µg/mL) in test [10]; 0.237 µM (≈ 0.5 µg/mL) in test [11]; 7.59 µM (≈ 16 µg/mL) in test [12]; 0.237 µM (≈ 0.5 µg/mL) in test [13]. For the same compound, the MIC in test [14] was found to be 0.0593 µM (≈ 0.125 µg/mL).
On to `CC[C@H](C)[C@H](NC(=O)[C@H](Cc1ccc(O)cc1)NC(=O)[C@H](CCC(N)=O)NC(=O)[C@H](CC(C)C)NC(=O)[C@H](C)NC(=O)[C@H](CCCCN)NC(=O)[C@H](CCCCN)NC(=O)[C@H](CCSC)NC(=O)[C@H](CCCCN)NC(=O)[C@H](CCCCN)NC(=O)[C@@H](N)CCCCN)C(=O)N[C@@H](CCCCN)C(=O)N[C@@H](CC(C)C)C(=O)N[C@@H](CC(C)C)C(=O)N[C@@H](CCCCN)C(=O)N[C@@H](CCC(=O)O)C(N)=O` [KKKMKKALQYIKLLKE], for which the MIC in [15] was not below 100 µM; in test [16] it was 12.5 µM (≈ 24.9 µg/mL); in test [17] it was 25 µM (≈ 49.7 µg/mL); in test [18] it was 6 µM (≈ 11.9 µg/mL); in test [19] it was not below 50 µM; in test [20], more than 100 µM. Besides, the minimum inhibitory concentration (MIC) in test [21] was not below 100 µM.
Turning to `CC[C@H](C)[C@H](NC(=O)[C@H](CCCN=C(N)N)NC(=O)[C@@H](N)CCSC)C(=O)NCC(=O)N[C@@H](CC(C)C)C(=O)N[C@@H](CCCN=C(N)N)C(=O)N[C@@H](Cc1ccccc1)C(=O)N[C@H](C(=O)N[C@@H](CC(C)C)C(=O)N[C@@H](CCSC)C(=O)O)C(C)C` [MRIGLRFVLM], the MIC is 12.9 µM (≈ 16 µg/mL) in test [22]; 12.9 µM (≈ 16 µg/mL) in test [23]; not below 104 µM in test [16]; 104 µM (≈ 128 µg/mL) in test [24]; 25.9 µM (≈ 32 µg/mL) in test [25]; 12.9 µM (≈ 16 µg/mL) in test [20]. Besides, the minimum inhibitory concentration (MIC) in [26] and in test [3] was not below 104 µM throughout.
Take `CC[C@H](C)[C@H](NC(=O)[C@H](CCCCN)NC(=O)[C@@H](N)CCCN=C(N)N)C(=O)N[C@@H](CCCCN)C(=O)N[C@@H](CCCN=C(N)N)C(=O)N[C@@H](Cc1ccc(O)cc1)C(=O)N[C@@H](CC(C)C)C(=O)N[C@@H](CCCN=C(N)N)C(=O)N[C@@H](CCCN=C(N)N)C(=O)N[C@@H](CCSC)C(=O)N[C@@H](CCCCN)C(=O)O` [RKIKRYLRRMK]: the MIC in test [27] is not below 64.6 µM; in test [28] it was not below 64.6 µM; in test [29], not below 129 µM; in test [30], not below 129 µM; in test [31], not below 258 µM; in test [32] it was not below 258 µM.
As to `NC(=O)C[C@H](NC(=O)[C@H](Cc1c[nH]c2ccccc12)NC(=O)[C@H](Cc1c[nH]c2ccccc12)NC(=O)[C@H](Cc1c[nH]c2ccccc12)NC(=O)[C@H](CC(N)=O)NC(=O)[C@H](Cc1c[nH]c2ccccc12)NC(=O)[C@H](CCCN=C(N)N)NC(=O)[C@@H](N)CCCN=C(N)N)C(=O)N[C@@H](Cc1c[nH]c2ccccc12)C(=O)N[C@@H](CCCN=C(N)N)C(=O)N[C@@H](CCCN=C(N)N)C(N)=O` [RRWNWWWNWRR], the minimal inhibitory concentration (MIC) is more than 64 µM in test [22]; not below 64 µM in test [33]; not below 64 µM in [34]; not below 64 µM in test [35]; more than 64 µM in [24]; more than 64 µM in [17]. For the same compound, the minimum inhibitory concentration (MIC) in test [36] is more than 64 µM; in [37], not below 64 µM; in test [38] it was not below 64 µM; in test [20] it was more than 64 µM; in test [39] it was not below 64 µM; in [40], not below 64 µM.
As for `CC(C)C[C@H](NC(=O)[C@H](CCCCN)NC(=O)[C@H](CC(C)C)NC(=O)[C@H](CCCCN)NC(=O)[C@H](CS)NC(=O)[C@H](CC(C)C)NC(=O)[C@H](Cc1c[nH]c2ccccc12)NC(=O)CNC(=O)[C@H](CCCCN)NC(=O)[C@H](CS)NC(=O)[C@@H]1CCCN1C(=O)[C@H](CCCCN)NC(=O)[C@H](CCCN=C(N)N)NC(=O)[C@H](CCCN=C(N)N)NC(=O)[C@H](CO)NC(=O)[C@@H](N)CO)C(=O)N[C@@H](CCCN=C(N)N)C(=O)O` [SSRRKPCKGWLCKLKLR], the MIC in test [41] is 2.91 µM (≈ 6 µg/mL); in test [42] it was 1.46 µM (≈ 3 µg/mL); in [43] it was 2.06 µM (≈ 4.24 µg/mL); in test [44], 5.83 µM (≈ 12 µg/mL).

For orientation: MIC means the lowest concentration that inhibits growth of the organism. Low readings indicate inhibition by little substance, high ones a need for much substance.
